Measured values taken from patent publication US20260027179A1, “ANTI-SYNUCLEINOPATHY PEPTIDE AND METHODS TO TREAT NEURODEGENERATIVE DISEASES” (University of British Columbia, priority 2021, published 2026).

Assays:
[1] = test system: β2/3 subunit of the GABAA receptor; assay: GABAA receptor β2/3 subunit level in cortical cultures, immunoblot; assay type: cell-based, rat; details: 50 μM, 24 hrs
Protocol: Primary rat neuron cultures were prepared from embryos of pregnant Sprague-Dawley rats (E18). The experimental protocol was approved by the University of British Columbia Animal Care Committee. Briefly, the cortical tissue or ventral midbrain tissue was isolated into ice cold HBSS (Invitrogen, 14170-112) and then digested with 0.25% trypsin-EDTA at 37° C. for 30 min. After washing with warm DMEM (supplemented with 10% FBS) three times, neurons were suspended in neuron culture media and dissociated by trituration using varying sizes of pipettes. Neurons were then centrifuged, and the pellet was re-suspended in culture media, washed twice with culture media, and plated on the poly-D-lysine-coated plates. Neuron culture was maintained in the 37° C. incubator with 95% O2 and 5% CO2. The morning after culturing, 2/3 of the neuron culture media was replaced with fresh neuron culture media. Media was then replaced every 3-4 days. […]
Brain tissues or cultured cells were lysed on ice in the lysis buffer and then the solution was centrifuged at 14,000 rpm for 10 min at 4° C. Next, the supernatant was collected and protein concentrations were determined using a BCA protein assay kit (Thermo Scientific, 23227). […] The band density of each protein was quantified by the Bio-Rad Quantity One software and the relative optical density was analyzed relative to the loading control β-actin on the same membrane.

Iba-1 = assay: PFF mouse model of spreading synucleinopathy, microglial Iba-1 immunostaining; assay type: in vivo; details: PFF-injected M83 mice, 40 mg/kg i.p. over 20 days, at three months, vs Tat-βsyn group
Protocol: M83 mice were injected intracerebrally (i.e.) into the right dorsal striatum with either 12.5 μg of α-synuclein pre-formed fibrils (PFFs) or PBS. Starting at 3 days prior to the PFF injection, mice were treated daily for 12 days with either Tat-βsyn or Tat-βsyn-degron peptide (40 mg/kg; i.p.) and once every other day for the subsequent 8 days (20 days in total, FIG. 5a). At the end of three months, coronal brain sections of the M83 mice were prepared and stained with antibodies against serine 129-phosphorylated α-synuclein (pS129syn), a marker of pathogenic synuclein aggregates, and Iba-1, a calcium-binding protein specifically expressed in macrophage and microglia as a marker of neuroinflammation.
PFFs were generated in-house based on the Volpicelli-Daley et al protocol. […] PFFs were characterized using a negative staining protocol and analyzed using an electron microscope. […] PFFs were visualized using a transmission electron microscope (FEI Tecnai 12 Bio Twin 120 kV TEM) coupled to a AMT XR80C CCD camera, and analyzed with ImageJ 1.5 and Matlab 2017b software. […]
Brains from M83 mice that received i.e. and i.p. injections were processed for immunohistochemistry. […] Coronal sections were analyzed using Fiji-ImageJ 1.5 software to detect the total area labeled with the peroxidase immunoreaction product. The results were analyzed using GraphPad Prism software.

For “YGRKKRRQRRRRTKSGVYLVGRRRG (The sequence is synthesized (YGRKKRRQRRRRTKSGVYLVGRRRG)) [Tat-βsyn-degron]”, the “expression level of β2/3 subunit of the GABAA receptor” value [1] was “did not affect the expression levels”, the “Iba-1 staining in pons” value (Iba-1) was “significantly reduced the level of Iba-1 staining” and the “Iba-1 staining in substantia nigra pars compacta” value (Iba-1) was “no observable effect”.
